Measurements taken from patent publication US9663448B2, “Tri-aryl compounds and compositions comprising the same” (BEN-GURION UNIVERSITY OF THE NEGEV RESEARCH AND DEVELOPMENT …, priority 2007, dated 2017).

Experiment: Solubility noted at work-up of the synthesis
Assay type: physicochemical
Conditions: qualitative remark
Protocol: 1,1,1-tris(4-hydroxyphenyl)ethane (1.53 gr, 5 mM), formaldehyde (1.35 gr, 45 mM) and 1-methyl piperazine (2.5 ml, 50 mM) in 20 ml water and 25 ml EtOH were refluxed for 3 hours. Evaporation provided a solid that by TLC and NMR contained 2 products, which was not the starting material. Formaldehyde (0.75 gr, 25 mM) and 1-methyl piperazine (1.5 ml, 30 mM) were added to 5 ml water and 10 ml EtOH and the reaction was refluxed for 4 hours. Evaporation and workup gave 3.3 gr light yellow-white solid, 67% yield, mp. […].

Compound: CN1CCN(Cc2cc(C(C)(c3cc(CN4CCN(C)CC4)c(O)c(CN4CCN(C)CC4)c3)c3cc(CN4CCN(C)CC4)c(O)c(CN4CCN(C)CC4)c3)cc(CN3CCN(C)CC3)c2O)CC1 [VIII]
- solubility in ethanol (solvent ethanol): Soluble
- solubility in water (solvent water): very good solubility
